Columns and labels:
[1] = tested on: normal (matched) 27-mer dsDNA (DNA, duplex) GACCAGCTTATCATCCCTAGATAAGCG/CGCTTATCTAGGGATGATAAGCTGGTC; assay: emission titration; conditions: 50 mM NaCl; 2 mM Tris, pH 7.5; 5 μM 1c; 4.7-fold emission increase
[2] = tested on: self-complementary CC mismatched DNA 5′-C1G2G3A4C5T6C7C8G9-3′ (DNA, mismatch bulge abasic) CGGACTCCG; assay: 1H NMR, NOESY, TOCSY titration; conditions: 20 mM NaCl, 50 mM sodium phosphate; D2O, pH 6.1, 10 °C; shifts at A4 and C5, mismatched site
[3] = tested on: CC mismatched 17-mer dsDNA (DNA, mismatch bulge abasic) GCGCCGTCGTCCATGTG/CACATGCACGACGGCGC; assay: emission titration; conditions: 50 mM NaCl; 2 mM Tris, pH 7.5; 27.5-fold emission increase
[4] = tested on: hairpin DNA oligomer with a CC mismatch (DNA, mismatch bulge abasic) GGCAGGCATGGCTTTTTGCCATCCCTGCC; assay: emission titration
[5] = tested on: matched 17-mer dsDNA (DNA, duplex) GCGCCGTCGTCCATGTG/CACATGGACGACGGCGC; assay: emission titration; conditions: 50 mM NaCl; 2 mM Tris, pH 7.5; 2.8-fold emission increase
[6] = tested on: 27-mer abasic dsDNA AP_A (DNA, mismatch bulge abasic, abasic at 13 of strand 2) GACCAGCTTATCATACCTAGATAAGCG/CGCTTATCTAGGNATGATAAGCTGGTC; assay: emission titration; conditions: 50 mM NaCl; 2 mM Tris, pH 7.5; 5 μM 1c; 14.8-fold emission increase
[7] = tested on: hairpin matched DNA (DNA, hairpin) GGCAGGCATGGCTTTTTGCCATGCCTGCC; assay: emission titration
[8] = tested on: CC mismatched DNA (ITC) (DNA, mismatch bulge abasic) GCGCCGTCGTCCATGTG/CACATGCACGACGGCGC; assay: ITC
[9] = tested on: 27-mer dsDNA with CC mismatch (DNA, mismatch bulge abasic) GACCAGCTTATCATCCCTAGATAAGCG/CGCTTATCTAGGCATGATAAGCTGGTC; assay: emission titration; conditions: 50 mM NaCl; 2 mM Tris, pH 7.5; 5 μM 1c; comparison DNA of abasic titration
[10] = tested on: 27-mer abasic dsDNA AP_C (DNA, mismatch bulge abasic, abasic at 13 of strand 2) GACCAGCTTATCATCCCTAGATAAGCG/CGCTTATCTAGGNATGATAAGCTGGTC; assay: emission titration; conditions: 50 mM NaCl; 2 mM Tris, pH 7.5; 5 μM 1c; 32.2-fold emission increase
[11] = tested on: 27-mer abasic dsDNA AP_T (DNA, mismatch bulge abasic, abasic at 13 of strand 2) GACCAGCTTATCATTCCTAGATAAGCG/CGCTTATCTAGGNATGATAAGCTGGTC; assay: emission titration; conditions: 50 mM NaCl; 2 mM Tris, pH 7.5; 5 μM 1c; 21.1-fold emission increase
[12] = tested on: 27-mer abasic dsDNA AP_G (DNA, mismatch bulge abasic, abasic at 13 of strand 2) GACCAGCTTATCATGCCTAGATAAGCG/CGCTTATCTAGGNATGATAAGCTGGTC; assay: emission titration; conditions: 50 mM NaCl; 2 mM Tris, pH 7.5; 5 μM 1c; 14.4-fold emission increase
[13] = tested on: matched DNA (ITC) (DNA, duplex) GCGCCGTCGTCCATGTG/CACATGGACGACGGCGC; assay: ITC
[14] = tested on: DNA without an abasic site (melting temperature experiment) (DNA, duplex) GACCAGCTTATCATCCCTAGATAAGCG/CGCTTATCTAGGGATGATAAGCTGGTC; assay: melting temperature; conditions: Tm stated not affected
[15] = 50 mM NaCl, 2 mM Tris, pH 7.5, 0.1 mM complex titrated with 0.75 mM DNA

Question: What does the source list for `CCCCN1[C]N(Cc2ccccc2)C=C1.[Pt+2].[c-]1ccccc1-c1cccc(-c2ccccn2)n1`?
Answer: binding [1]: weak; binding [2]: yes; binding [3]: yes; binding ([4]; 50 mM NaCl, 2 mM Tris, pH 7.5, 5 μM 1c, 26.4-fold emission increase at 1 equivalent): yes; binding [5]: weak; binding [6]: yes; binding ([7]; 50 mM NaCl, 2 mM Tris, pH 7.5, 5 μM 1c, 2.6-fold emission increase at 1 equivalent): weak; Kd [8, 15]: 51.5 ± 8.0 µM; binding [9]: yes; binding [10]: yes; binding [11]: yes; binding [12]: yes

Question: How did the binding ([4]; 8.5-fold emission increase) turn out when `CN1[C]N(C)C=C1.[Pt+2].[c-]1ccccc1-c1cccc(-c2ccccn2)n1` was run?
Answer: The binding was “yes”.

Question: And the Kd [13, 15]?
Answer: The Kd was 56.4 ± 13.6 µM.

Question: What about the binding ([7]; 7.1-fold emission increase) of the same molecule?
Answer: The binding was “yes”.

Question: What about the Kd [8, 15] of the same molecule?
Answer: Its Kd is 66.2 ± 15.7 µM.

Question: Which binding ([4]; 50 mM NaCl, 2 mM Tris, pH 7.5, 5 μM 2, 50-fold emission increase at 0.5 equivalents) does the source give for `C1CCC(P(CP(C2CCCCC2)C2CCCCC2)C2CCCCC2)CC1.[Pt+2].[Pt+2].[c-]1ccccc1-c1cccc(-c2ccccn2)n1.[c-]1ccccc1-c1cccc(-c2ccccn2)n1` here?
Answer: The binding was “yes”.

Question: And the binding ([13]; 50 mM NaCl, 2 mM Tris, pH 7.5, 0.1 mM complex titrated with 0.75 mM DNA, Kd stated negligible)?
Answer: The binding was “no”.

Question: What about the binding ([7]; 50 mM NaCl, 2 mM Tris, pH 7.5, 5 μM 2, 8.2-fold emission increase at 0.5 equivalents) of the same molecule?
Answer: The binding was “weak”.

Question: And the Kd [8, 15]?
Answer: Its Kd is 7.0 ± 2.1 µM.

Question: What about the binding [14] of the same molecule?
Answer: Its binding is “no”.

Question: Which results are given for `CC[n+]1c(-c2ccccc2)c2cc(N)ccc2c2ccc(N)cc21`?
Answer: binding ([4]; 12.7-fold emission increase): yes; Kd ([13]; Na+ 50 mM (Tris 2 mM buffer)): 1.60 ± 0.28 µM; binding ([7]; 14.1-fold emission increase): yes; Kd ([8]; Na+ 50 mM (Tris 2 mM buffer)): 1.32 ± 0.24 µM

Reference: paper PMC4757794 (2016)
